# From ChEMBL document CHEMBL3860064, “Synthesis of (benzimidazol-2-yl)aniline derivatives as glycogen phosphorylase inhibitors” (Bioorg Med Chem, 2016)
# Columns and labels:
# [1] = Solubility of the compound in water; type: physicochemical; details: buffer
# [2] = Aqueous solubility of the compound in 20% DMSO; type: physicochemical; details: buffer
# [3] = biological target: T1, Glycogen phosphorylase, muscle form (Oryctolagus cuniculus) (UniProt P00489); assay: Inhibition of rabbit skeletal muscle glycogen phosphorylase b assessed as inorganic phosphate release using glucose-1-phosphate as substrate at pH 6.8 at 500 uM
# T1 sequence (whole entry): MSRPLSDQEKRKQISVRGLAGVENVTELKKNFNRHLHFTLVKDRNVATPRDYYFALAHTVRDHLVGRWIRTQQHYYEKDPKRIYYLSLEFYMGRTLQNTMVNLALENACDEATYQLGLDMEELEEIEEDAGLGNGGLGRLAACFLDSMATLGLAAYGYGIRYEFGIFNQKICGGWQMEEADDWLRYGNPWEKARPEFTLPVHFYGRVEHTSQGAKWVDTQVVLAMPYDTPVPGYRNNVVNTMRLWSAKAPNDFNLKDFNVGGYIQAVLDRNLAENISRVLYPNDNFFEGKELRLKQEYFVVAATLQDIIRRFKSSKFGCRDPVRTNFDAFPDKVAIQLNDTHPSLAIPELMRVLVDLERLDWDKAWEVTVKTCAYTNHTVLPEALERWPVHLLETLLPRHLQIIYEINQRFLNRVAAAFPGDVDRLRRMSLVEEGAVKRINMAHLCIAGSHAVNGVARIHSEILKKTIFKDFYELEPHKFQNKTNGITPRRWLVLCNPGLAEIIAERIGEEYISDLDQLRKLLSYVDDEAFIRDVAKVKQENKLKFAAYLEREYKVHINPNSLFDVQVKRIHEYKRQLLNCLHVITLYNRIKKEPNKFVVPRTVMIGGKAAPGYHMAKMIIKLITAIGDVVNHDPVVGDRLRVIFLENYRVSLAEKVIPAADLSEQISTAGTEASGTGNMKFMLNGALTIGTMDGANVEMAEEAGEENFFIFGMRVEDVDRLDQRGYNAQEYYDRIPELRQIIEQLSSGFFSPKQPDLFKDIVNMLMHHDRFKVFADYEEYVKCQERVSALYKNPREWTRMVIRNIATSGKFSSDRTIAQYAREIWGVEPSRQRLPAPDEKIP
# [4] = biological target: T2, Glycogen phosphorylase, liver form (Homo sapiens, UniProt P06737); assay: Inhibition of human recombinant liver glycogen phosphorylase A expressed in baculovirus infected Sf9 insect cells assessed as release of phosphate from glucose-1- phosphate in presence of 7.5 mM glucose by malachite green based assay
# T2 sequence (P06737 whole entry): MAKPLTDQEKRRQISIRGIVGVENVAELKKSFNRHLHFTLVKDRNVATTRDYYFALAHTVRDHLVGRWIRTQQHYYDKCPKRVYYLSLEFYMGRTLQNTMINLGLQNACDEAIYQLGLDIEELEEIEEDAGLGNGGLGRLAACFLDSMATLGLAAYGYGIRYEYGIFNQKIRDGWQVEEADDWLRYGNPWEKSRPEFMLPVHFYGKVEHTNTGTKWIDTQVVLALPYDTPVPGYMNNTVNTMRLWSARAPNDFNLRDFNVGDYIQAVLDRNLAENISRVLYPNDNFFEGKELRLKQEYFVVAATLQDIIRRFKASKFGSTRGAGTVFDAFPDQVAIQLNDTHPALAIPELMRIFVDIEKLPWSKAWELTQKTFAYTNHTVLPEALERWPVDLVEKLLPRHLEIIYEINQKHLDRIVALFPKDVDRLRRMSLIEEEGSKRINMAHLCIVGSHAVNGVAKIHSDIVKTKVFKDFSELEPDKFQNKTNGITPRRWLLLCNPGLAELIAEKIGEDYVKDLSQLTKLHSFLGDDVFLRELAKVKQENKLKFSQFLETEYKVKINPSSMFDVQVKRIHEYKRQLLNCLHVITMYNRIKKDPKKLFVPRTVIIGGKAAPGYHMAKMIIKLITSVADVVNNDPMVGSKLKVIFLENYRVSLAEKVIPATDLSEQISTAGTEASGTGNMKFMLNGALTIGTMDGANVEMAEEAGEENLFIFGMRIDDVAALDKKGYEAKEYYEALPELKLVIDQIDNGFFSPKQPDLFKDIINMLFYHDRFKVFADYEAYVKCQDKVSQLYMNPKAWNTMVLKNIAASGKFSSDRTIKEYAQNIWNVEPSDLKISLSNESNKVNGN
# [5] = biological target: T3, Glycogen phosphorylase, muscle form (Oryctolagus cuniculus, UniProt P00489); assay: Inhibition of rabbit muscle glycogen phosphorylase b using […] preincubated for 60 mins followed by substrate addition in presence of glycogen
# T3 sequence (P00489 whole entry): T1 sequence (whole entry)
# [6] = biological target: T3, Glycogen phosphorylase, muscle form; assay: Inhibition of rabbit skeletal muscle glycogen phosphorylase b assessed as reduction in inorganic phosphate release using glucose-1-phosphate as substrate at pH 6.8
# [7] = biological target: T1, Glycogen phosphorylase, muscle form (Oryctolagus cuniculus); assay: Inhibition of rabbit skeletal muscle glycogen phosphorylase b assessed as inorganic phosphate release using glucose-1-phosphate as substrate at pH 6.8 at 1000 uM
# [8] = biological target: T1, Glycogen phosphorylase, muscle form (Oryctolagus cuniculus); assay: Inhibition of rabbit skeletal muscle glycogen phosphorylase b assessed as inorganic phosphate release using glucose-1-phosphate as substrate at pH 6.8 at 200 uM
# [9] = biological target: T1, Glycogen phosphorylase, muscle form (Oryctolagus cuniculus); assay: Inhibition of rabbit skeletal muscle glycogen phosphorylase b assessed as inorganic phosphate release using glucose-1-phosphate as substrate at pH 6.8 at 300 uM
# [10] = biological target: T1, Glycogen phosphorylase, muscle form (Oryctolagus cuniculus); assay: Inhibition of rabbit skeletal muscle glycogen phosphorylase b assessed as inorganic phosphate release using glucose-1-phosphate as substrate at pH 6.8 at 250 uM
structure (smiles),measurement,setting,value
Cc1ccc(S(=O)(=O)Nc2ccc(-c3nc4ccccc4[nH]3)cc2)cc1,solubility,[1],Insoluble
same,solubility,[2],Soluble
same,inhibition,[3],20.7%
O=C(N[C@@H](Cc1ccc(F)cc1)C(=O)C(=O)N1CCC(O)CC1)c1cc2cc(Cl)ccc2[nH]1,IC50,[4],0.2 µM
same,IC50,[5],0.178 µM
O=C1N=C(Nc2ccc(-c3nc4ccccc4[nH]3)cc2)CN1,solubility,[1],Insoluble
O=c1[nH][nH]c(O)c1/N=N/c1ccc(-c2nc3ccccc3[nH]2)cc1,solubility,[1],Insoluble
same,inhibition,[3],29.4%
CC(=O)C(/N=N/c1ccc(-c2nc3ccccc3[nH]2)cc1)=C(/C)O,solubility,[1],Insoluble
same,solubility,[2],Soluble
O=C(CCl)Nc1ccc(-c2nc3ccccc3[nH]2)cc1,solubility,[1],Insoluble
same,solubility,[2],Soluble
CCOC(=O)C(=NNc1ccc(-c2nc3ccccc3[nH]2)cc1)C(=O)OCC,solubility,[1],Insoluble
same,solubility,[2],Soluble
CN(C)C(=O)[C@H](O)[C@H](Cc1ccccc1)NC(=O)c1cc2cc(Cl)ccc2[nH]1,IC50,[4],0.082 µM
Cc1nn(-c2ccc([N+](=O)[O-])cc2)c(C)c1/N=N/c1ccc(-c2nc3ccccc3[nH]2)cc1,solubility,[1],Insoluble
same,IC50,[6],532 µM
Cc1n[nH]c(C)c1/N=N/c1ccc(-c2nc3ccccc3[nH]2)cc1,solubility,[1],Insoluble
O=C(O)/C=C/C(=O)Nc1ccc(-c2nc3ccccc3[nH]2)cc1,solubility,[1],Insoluble
same,inhibition,[7],45%
c1ccc2[nH]c(-c3ccc(NC4=NCCNC4)cc3)nc2c1,solubility,[1],Insoluble
CC(=O)C/C(C)=N/c1ccc(-c2nc3ccccc3[nH]2)cc1,inhibition,[8],7%
same,solubility,[1],Insoluble
same,solubility,[2],Soluble
O=C(NC(=O)c1cc(F)c(F)cc1Cl)Nc1ccsc1-c1n[nH]c(=O)o1,IC50,[4],30 µM
Nc1ccc(-c2nc3ccccc3[nH]2)cc1,solubility,[1],Insoluble
O=C(O)c1cc(Nc2ccc(-c3nc4ccccc4[nH]3)cc2)[nH]n1,solubility,[1],Insoluble
same,solubility,[2],Insoluble
O=[N+]([O-])c1ccccc1S(=O)(=O)Nc1ccc(-c2nc3ccccc3[nH]2)cc1,solubility,[1],Insoluble
same,IC50,[6],358 µM
same,solubility,[2],Soluble
S=C1N=C(Nc2ccc(-c3nc4ccccc4[nH]3)cc2)CN1,solubility,[1],Insoluble
O=C(O)c1cc(Nc2ccc(-c3nc4ccccc4[nH]3)cc2)n(-c2ccccc2)n1,solubility,[1],Insoluble
same,inhibition,[9],25%
O=C1N=C(Nc2ccc(-c3nc4ccccc4[nH]3)cc2)CNN1,solubility,[1],Insoluble
same,IC50,[6],437 µM
N=C1N=C(Nc2ccc(-c3nc4ccccc4[nH]3)cc2)CN1,solubility,[1],Insoluble
Oc1nc(=S)[nH]c(O)c1/N=N/c1ccc(-c2nc3ccccc3[nH]2)cc1,inhibition,[8],16.1%
same,solubility,[1],Insoluble
O=C(O)c1cc(Nc2ccc(-c3nc4ccccc4[nH]3)cc2)n(-c2ccc([N+](=O)[O-])cc2)n1,solubility,[1],Insoluble
same,inhibition,[10],8.1%
Cc1nn(-c2ccccc2)c(C)c1/N=N/c1ccc(-c2nc3ccccc3[nH]2)cc1,solubility,[1],Insoluble
O=S(=O)(Nc1ccc(-c2nc3ccccc3[nH]2)cc1)c1ccccc1,solubility,[1],Insoluble
same,IC50,[6],324 µM
same,solubility,[2],Soluble
S=C1N=C(Nc2ccc(-c3nc4ccccc4[nH]3)cc2)CNN1,solubility,[1],Insoluble
same,solubility,[2],Soluble
